Laboratory results: PMC9144521 (Viruses, 2022)
Counter-ions that a name gives are not always drawn.

Assays:
AdV3 = assay: Anti-AdV activity assay (IFA of hexon), secondary screen, AdV3; assay type: cell-based, Human adenoviruses type 3; conditions: for Selective Index AdV3: CC50/EC50, Vero cells; for EC50: Vero cells, 48 h, IFA of hexon, 0.02 to 5 μM
in vitro = conditions: African green monkey
AdV5 = assay: Anti-AdV activity assay (IFA of hexon), secondary screen, AdV5; assay type: cell-based, Human adenoviruses type 5; conditions: for Selective Index AdV5: CC50/EC50, Vero cells; for EC50: Vero cells, 48 h, IFA of hexon, 0.02 to 5 μM

| Molecule | Selective Index AdV3 (AdV3) | EC50 (AdV3) | CC50 at 48 h (in vitro) | Selective Index AdV5 (AdV5) | EC50 (AdV5) | CC50 at 48 h (in vitro; Vero cells) |
| --- | --- | --- | --- | --- | --- | --- |
| CO[C@H]1/C=C\C=C(/C)C(=O)NC2=CC(=O)C(NCCN(C)C)=C(C[C@@H](C)C[C@H](OC)[C@H](O)[C@@H](C)/C=C(\C)[C@@H]1OC(N)=O)C2=O [17-DMAG] | >23.20 | 220 nM | > 5000 nM | >11.58 | 430 nM | – |
| O=C1c2ccc(Nc3ccc(F)cc3F)cc2CCc2ccc(OC[C@H](O)CO)cc21 [Skepinone-L] | 11.84 | 180 nM | 2140 nM | 0.83 | 2560 nM | – |
| CNC(=O)c1ccc(C)c(-n2c(C)cc(OCc3ccc(F)cc3F)c(Br)c2=O)c1 [PH-797804] | >250.00 | 20 nM | > 5000 nM | >3.16 | 1580 nM | – |
| CN1CCC(NC(=O)c2cc(-c3c(O)cc(O)cc3Oc3ccc([N+](=O)[O-])cc3)on2)CC1 [NMS-E973] | – | 920 nM | – | – | 4940 nM | – |
| CNC(=O)CN1CCC(Oc2cc3c(Nc4cccc(Cl)c4F)ncnc3cc2OC)CC1 [AZD8931] | >96.15 | 50 nM | > 5000 nM | – | > 5000 nM | – |
| COc1cc2ncnc(Nc3ccc(F)c(Cl)c3)c2cc1NC(=O)/C=C/CN1CCCCC1 [Dacomitinib] | 6.31 | 770 nM | – | 2.97 | 1640 nM | 4880 nM |
| CNC(=O)c1cc(Oc2ccc(NC(=O)Nc3ccc(Cl)c(C(F)(F)F)c3)cc2)ccn1 [Sorafenib Tosylate] | 4.67 | 1270 nM | > 5000 nM | 1.53 | 3870 nM | – |
| Cc1c(CN2CCN(C(=O)[C@H](C)O)CC2)sc2c(N3CCOCC3)nc(-c3cnc(N)nc3)nc12 [GDC-0980] | 36.44 | 80 nM | 3000 nM | 10.96 | 270 nM | – |
| CO[C@@H](C)Cn1c(=O)n(C)c2cnc3ccc(-c4cncc(C(C)(C)O)c4)cc3c21 [LY3023414] | >5.58 | 900 nM | > 5000 nM | >3.83 | 1310 nM | – |
| CC1(C)CC(=O)c2c(C(F)(F)F)nn(-c3ccc(C(N)=O)c(N[C@H]4CC[C@H](OC(=O)CN)CC4)c3)c2C1 [PF-04929113] | >26.61 | 190 nM | > 5000 nM | >12.46 | 400 nM | – |
| Cn1c(Nc2ccc(C(F)(F)F)cc2)nc2cc(Oc3ccnc(-c4ncc(C(F)(F)F)[nH]4)c3)ccc21 [RAF265] | >3.91 | 1280 nM | > 5000 nM | – | > 5000 nM | – |
| O=C(c1ccc(/C=C/c2n[nH]c3ccccc23)cc1)N1CCNCC1 [KW-2449] | >1.37 | 3660 nM | > 5000 nM | >3.91 | 1280 nM | – |
| COc1c(C)c2c(c(O)c1C/C=C(\C)CCC(=O)OCCN1CCOCC1)C(=O)OC2 [Mycophenolate Mofetil] | >2.72 | 1840 nM | – | >25.83 | 190 nM | > 5000 nM |
| CCNC(=O)Nc1ccc(-c2nc3c(c(N4CCOC[C@@H]4C)n2)CCN(C2COC2)C3)cc1 [GDC-0349] | >3.63 | 1380 nM | – | >1.91 | 2620 nM | > 5000 nM |
| CO[C@H]1CC[C@H](N2C(=O)CNc3ncc(-c4ccc(C(C)(C)O)nc4)nc32)CC1 [CC-223] | >4.50 | 1110 nM | – | >3.62 | 1380 nM | > 5000 nM |
| CC(C)n1nc(-c2ccc3oc(N)nc3c2)c2c(N)ncnc21 [INK 128] | 161.78 | 10 nM | – | 61.27 | 10 nM | 850 nM |
| CCCCOc1c(C(=O)c2c(F)cc(C)cc2F)c[nH]c2nncc1-2 [BMS-265246] | >7.84 | 640 nM | – | >8.35 | 600 nM | > 5000 nM |

| Molecule | Selective Index AdV3 (AdV3) | EC50 (AdV3) | CC50 at 48 h (in vitro) | Selective Index AdV5 (AdV5) | EC50 (AdV5) | CC50 at 48 h (in vitro; Vero cells) |
| --- | --- | --- | --- | --- | --- | --- |
| CNC(=O)c1cccc(-c2ccc3c(N4CCOC[C@@H]4C)nc(N4CCOC[C@@H]4C)nc3n2)c1 [AZD2014] | 171.31 | 20 nM | 4050 nM | 56.82 | 70 nM | – |
| COc1cc(Nc2ncc(F)c(Nc3ccc4c(n3)N(COP(=O)(O)O)C(=O)C(C)(C)O4)n2)cc(OC)c1OC [R788] | 6.65 | 230 nM | – | 1.48 | 1060 nM | 1560 nM |
| CC(C)c1cc(C(=O)N2Cc3ccc(CN4CCN(C)CC4)cc3C2)c(O)cc1O [AT13387] | >61.84 | 80 nM | – | >27.13 | 180 nM | > 5000 nM |
| CCn1c(=O)c(-c2cc[nH]n2)cc2c(C)nc(N)nc21 [Voxtalisib] | 4.83 | 470 nM | 2260 nM | 0.83 | 2720 nM | – |
| CC1(C)CC(=O)c2c(C(F)(F)F)nn(-c3ccc(C(N)=O)c(N[C@H]4CC[C@H](O)CC4)c3)c2C1 [SNX-2112] | >28.87 | 170 nM | – | >15.09 | 330 nM | > 5000 nM |
| COc1cccc(-c2ccc(NC(=O)C3=C(C(=O)O)CCC3)c(F)c2)c1 [Vidofludimus] | >3.07 | 1630 nM | – | >5.35 | 940 nM | > 5000 nM |
| CCNC(=O)c1noc(-c2cc(C(C)C)c(O)cc2O)c1-c1ccc(CN2CCOCC2)cc1 [AUY922] | >28.56 | 180 nM | > 5000 nM | >22.11 | 230 nM | – |
| CNC(=O)c1cc(Oc2ccc(NC(=O)Nc3ccc(Cl)c(C(F)(F)F)c3)c(F)c2)ccn1 [Regorafenib] | 9.30 | 440 nM | – | 2.72 | 1500 nM | 4060 nM |
| Cc1nc(Nc2[nH]nc3c2CN(C(=O)N[C@H](CN(C)C)c2ccccc2)C3(C)C)c2sccc2n1 [PF-3758309] | >9.29 | 540 nM | – | >2.22 | 2260 nM | > 5000 nM |
| COc1c(C)cnc(Cn2cnc3c(Cl)nc(N)nc32)c1C [BIIB021] | >48.73 | 100 nM | > 5000 nM | >21.2 | 240 nM | – |
| CN1CCN(c2ccc(Nc3ncc4cc(C#N)c(=O)n(C5CCCC5)c4n3)cc2)CC1 [ON123300] | >1.72 | 2910 nM | – | >3.08 | 1620 nM | > 5000 nM |
| CC(C)NCCCn1c(Sc2cc3c(cc2I)OCO3)nc2c(N)ncnc21 [PU-H71] | >6.79 | 740 nM | – | >2.27 | 2200 nM | > 5000 nM |
| Cc1ccc(-n2nc(C(C)(C)C)cc2NC(=O)Nc2ccc(OCCN3CCOCC3)c3ccccc23)cc1 [Doramapimod] | >14.24 | 350 nM | > 5000 nM | – | > 5000 nM | – |
| O=C(/C=C\n1cnc(-c2cc(C(F)(F)F)cc(C(F)(F)F)c2)n1)NNc1cnccn1 [KPT-330] | 15.45 | 100 nM | 1580 nM | 3.04 | 520 nM | – |
| Nc1ccc(-c2ccc3ncc4ccc(=O)n(-c5cccc(C(F)(F)F)c5)c4c3c2)cn1 [Torin 2] | – | 310 nM | – | – | 90 nM | – |
| AZD4547 | 8.78 | – | – | – | – | – |
| NC(=O)CCCSc1nc(N)nc(-c2c(Cl)cc3c4c(cccc24)COC3)n1 [CH5138303] | – | 90 nM | – | – | 650 nM | – |
